Test results taken from a melting point compilation (Tetko et al.; mined from patent text by program, amines drawn as free bases though some values may be those of a salt).

Point of comparison: `Nc1cc(N)c(SCCO)cc1SCCO`, melting point 144 °C. Against it:
- COC(=O)c1nn(C)c2ccccc12 — lower, 78 to 79 °C
- CC(C)[C@@H]1NC(=O)OC1(c1ccccc1)c1ccccc1 — higher, 250 to 251 °C
- O=S(=O)(Nc1ccccc1OCc1ccc2ccccc2n1)c1cccc(C(F)(F)F)c1 — higher, 154 to 155 °C
- CCN(CC)CCOc1ccc(Nc2ncc3c(n2)N(C)C(=O)N(c2c(Cl)cccc2Cl)C3)cc1 — lower, 123 to 124 °C
- CC(=O)NC1c2cc3nonc3cc2OC(C)(C)C1OC(C)=O (stereo unspecified) — higher, 236 to 238 °C
- CN1CCN(CCCNc2cc(Oc3ccc4c(C(=O)Nc5cc(C(C)(C)C)nn5-c5ccc(F)cc5)cccc4c3)ncn2)CC1 — lower, 131 to 133 °C
- COc1cccc(C(=O)NN2C(c3ccccc3)=NOC2(C)C)c1C — lower, 141 to 142 °C
- NC(=O)c1cnn(-c2ccc(F)cc2)c1-c1ccncc1 — higher, 215 to 216 °C
- Cn1c(O)nc2cc3c(cc21)C(C)(C)C(=O)N3 — higher, 364 to 367 °C
- O=C(O)[C@@H]1CC[C@@H](Oc2ccccc2)c2c(-c3ccc(Cl)cc3)noc2C1 (relative stereo) — higher, 182 to 183 °C
- COn1nnc2cc(Cn3ccnc3)ccc21 — lower, 94.3 °C
- COc1ccc(N2CCN(CCC3OCCc4cc(C(=O)N(C)C)ccc43)CC2)cc1 (stereo unspecified) — lower, 94 to 96 °C
- C=CC1C(=O)N(c2ccc(OC)cc2)C1C(=O)OCC (stereo unspecified) — lower, 70 to 72 °C
- NCCN1C(=O)CN(c2ccc(Cl)cc2)C1=O — not separable, 142 to 145 °C
- CSc1sc(C(N)=O)c2c1-c1[nH]ncc1CC2 — higher, 210 to 211 °C
- COc1ccc2cc(C=C(C)C(=O)NCCN(O)C(N)=O)ccc2c1 — higher, 174 to 176 °C
- COc1cc(N(C)C)c(Cl)cc1C(=O)NC1CCN(Cc2ccccc2)C1 (stereo unspecified) — lower, 85 to 86 °C
- Cc1ccc(COC2C(Sc3ccccc3)OC(C)C(O)C2O)cc1 (stereo unspecified) — higher, 146 to 147 °C
- O=C(NN1CCc2ccccc2C1)Oc1ccc2c(c1)CN(Nc1ccncc1)C2 — higher, 162 to 163 °C
- CC1CCC(=NN(C)c2ccccc2)c2ncc(C(=O)O)c(=O)n21 (stereo unspecified) — higher, 196 to 198 °C
- CCCc1ccc(C(=O)O)cc1[N+](=O)[O-] — lower, 106 to 109 °C
- CCN1C(=O)C(F)N=C(c2ccccc2)c2cc(Cl)ccc21 (stereo unspecified) — higher, 156 to 158 °C
- CCCCCc1nc2ccc(C(=O)O)cc2c(=O)o1 — higher, 185 to 190 °C
- COc1ccc(-c2nc(N(C)C)c3c(C)c(C#N)sc3n2)cc1 — lower, 123 to 125 °C
- CCOc1nc(-c2cccc(Cl)c2)c2cc(C(O)(c3ccc(C(=O)OC(C)C)cc3)c3cncn3C)ccc2n1 (stereo unspecified) — higher, 145 °C
- CCCCOc1c(CNC(=O)OC(C)(C)C)n(CC(C)C)c(=O)c2ccc(C#N)cc12 — lower, 126 to 127 °C
- Cc1cccc(OCC(=O)N[C@@H](Cc2ccccc2)C(=O)CSCc2ccco2)c1 — lower, 76 to 78 °C
- NC(=O)Oc1ccc2c(c1)[nH]c(=O)c1c3ccc(OC(N)=O)cc3oc21 — higher, 215 to 220 °C
- CC(=O)NC[C@H]1CN(c2ccc3c(c2)CC(C)N3C(=O)OCc2ccccc2)C(=O)O1 (stereo partly specified) — higher, 170 to 175 °C
- N#Cc1ccc(-c2cnco2)cc1 — lower, 140 °C
- CSc1noc(-c2ccc(OCCOc3ccc(Br)cc3)cc2)c1C#N — higher, 156 to 157 °C
- Cc1cc(Cl)cc2c1NS(=O)(=O)N(C(C)C)C2=O — not separable, 142 to 144 °C
- CCOc1nn(C(=O)N(CCCF)S(=O)(=O)N=c2[nH]ccs2)c(=O)n1C — higher, 178 °C
- CN=NNc1ccc(C)cc1 — lower, 77 to 80 °C
- CCOC(=O)c1conc1-c1ccc(Cl)c(Cl)c1 — lower, 129 to 130 °C
- CC(C)(C)OC(=O)N1CCc2c(n(CC(=O)Nc3ccccc3)c3ccc(Cl)c(Cl)c23)CC1 — higher, 208 to 210 °C
- Cc1ccc(S(=O)(=O)N(OC(C)C)c2ccc([N+](=O)[O-])cc2Cl)cc1 — higher, 160 to 162 °C
- Cn1ncc2c(=O)n3c(nc21)SC(C)(C)C3 — higher, 188 °C
- CSC(=N)Nc1nc(C(C)(C)C)c(O)c(C(C)(C)C)n1 — higher, 163 to 165 °C
- COC(=O)Cc1c(C(=O)OC)ccn1CCCl — lower, 110 to 111 °C
